# Assay results reported in patent US7452688B2, “Transformed cell with enhanced sensitivity to antifungal compound and use thereof” (Sumitomo Chemical Company, Limited, priority 2002, dated 2008).
# Legend:
# Type in all cases: cell-based, Saccharomyces cerevisiae
# [1] = tested on: AH22 strain; experiment: Antifungal compound sensitivity test, control yeast AH22 strain (Example 13); conditions: 30° C. 24.5 hours, relative value in percentage
# Method: (§1) The transformed budding yeast AH22-FoOS1 prepared in Example 12 was cultured while shaking at 30° C. for 18 hours in a Glu-Leu medium. As a control, the AH22 strain was similarly cultured while shaking at 30° C. for 18 hours in a Glu medium. The absorbance at 600 nm of each grown transformed budding yeast in a cell suspension was measured, and cell suspension diluted with sterilized distilled water to the absorbance of 0.1 was prepared. Further, a cell suspension in which the aforementioned cell suspension of the transformed budding yeast AH22-FoOS1 was diluted 50-fold with a Glu-Leu medium, and a cell suspension in which the aforementioned cell suspension of the AH22 strain was diluted 50-fold with a Glu medium were prepared.
# (§2) A solution in which each of Compounds (1) to (3) was dissolved in dimethylsulfoxide (DMSO) to the concentration of 600 ppm, a solution in which each of Compounds (4) and (5) was dissolved in dimethylsulfoxide (DMSO) to the concentration of 2000 ppm, and a solution in which Compounds (6) and (7) was dissolved in dimethylsulfoxide (DMSO) to the concentration of 20 ppm were prepared, and two microplates were prepared in which each 1.0 μL per well of the Compound solution and DMSO as a control were dispensed. In one microplate among them, each. 100 μL of cell suspensions of the transformed budding yeast AH22-FoOS1 which had been prepared by dilution as described above was dispensed, and cultured by allowing to stand at 30° C. for 26.5 hours. In another microplate, each 100 μL of cell suspensions of the control yeast AH22 strain which had been prepared by dilution as described above was dispensed, and cultured by allowing to stand at 30° C. for 24.5 hours. After culturing, the absorbance at 600 nm of each well was measured with a microplate reader.
# (§3) A degree of growth of the transformed budding yeast is expressed as a relative value in percentage, letting the absorbance at 600 nm at the concentration of the Compound of 0 ppm to be 100. It was confirmed that an inhibiting degree of growth of the transformed budding yeast TM182-FoOS1 by each test substance was grater than an inhibiting degree of growth of the transformed budding yeast AH22-FoOS1 by each test substance, and the transformed budding yeast TM182-FoOS1 was a transformed cell with the enhanced sensitivity to an antifungal compound as compared with the transformed budding yeast AH22-FoOS1.
# [2] = tested on: transformed budding yeast AH22-FoOS1; experiment: Antifungal compound sensitivity test, transformed budding yeast AH22-FoOS1 (Example 13); conditions: 30° C. 26.5 hours, relative value in percentage
# Method: as §1, §2, §3
# [3] = tested on: transformed budding yeast AH22-RsOS1; experiment: Antifungal compound sensitivity test, transformed budding yeast AH22-RsOS1 (Example 19); conditions: 30° C. 29.8 hours, relative value in percentage
# Method: as §1, with “AH22-RsOS1” for “AH22-FoOS1”, “18” for “12”
# A solution in which each of Compounds (1) to (5) was dissolved in dimethylsulfoxide (DMSO) to the concentration of 600 ppm, and a solution in which Compounds (6) and (7) was dissolved in dimethylsulfoxide (DMSO) to the concentration of 60 ppm were prepared, and two microplates were prepared in which each 1.0 μL per well of the Compound solution and DMSO as a control were dispensed. In one microplate among them, each 100 μL of cell suspensions of the transformed budding yeast AH22-RsOS1 which had been prepared by dilution as described above was dispensed, and cultured by allowing to stand at 30° C. for 29.8 hours. In another microplate, each 100 μL of cell suspensions of the control yeast AH22 strain which had been prepared by dilution as described above was dispensed, and cultured by allowing to stand at 30° C. for 24.8 hours. After culturing, the absorbance at 600 nm of each well was measured with a microplate reader.
# as §3, with “TM182-RsOS1” for “TM182-FoOS1”, “AH22-RsOS1” for “AH22-FoOS1”, “AH22-RsOS1.” for “AH22-FoOS1.”
# [4] = tested on: transformed budding yeast TM182-RsOS1; experiment: Antifungal compound sensitivity test of transformed budding yeast TM182-RsOS1 (Example 19); conditions: for Degree of growth of budding yeast TM182-RsOS1 Gal-Ura-Leu medium: control medium, 30° C. 42.5 hours; for Degree of growth of budding yeast TM182-RsOS1 Gul-Ura-Leu medium: 30° C. 26.8 hours
# Method: Similarly, the transformed budding yeast TM182-RsOS1 prepared in Example 18 was cultured at 30° C. for 18 hours in a Glu-Ura-Leu medium. The absorbance at 600 nm of the grown transformed budding yeast in a cell suspension was measured, and a cell suspension diluted with sterilized distilled water to the absorbance of 0.1 was prepared. Further, a cell suspension in which the transformed budding yeast TM182-RsOS1 was diluted 50-fold with a Glu-Ura-Leu medium. As a control, the transformed budding yeast TM182-RsOS1 was cultured at 30° C. for 18 hours in a Gal-Ura-Leu medium. The absorbance at 600 nm of the grown transformed budding yeast in a cell suspension was measured, and a cell suspension diluted with sterilized distilled water to the absorbance of 0.1 was prepared. Further, a cell suspension in which the transformed budding yeast TM182-RsOS1 was diluted 50-fold with a Gal-Ura-Leu medium.
# A solution in which each of Compounds (1) to (5) was dissolved in dimethylsulfoxide (DMSO) to the concentration of 600 ppm, and a solution in which each of Compounds (6) and (7) was dissolved in dimethylsulfoxide (DMSO) to the concentration of 60 ppm were prepared, and two microplates were prepared in which each 2.0 μL per well of the Compound-DMSO solution and DMSO as a control were dispensed into 2 wells. In one microplate among them, each 100 μL of cell suspensions of the transformed budding yeast TM182-RsOS1 which had been prepared by dilution with a Glu-Ura-Leu medium as described above was dispensed, and cultured by allowing to stand at 30° C. for 26.8 hours. In another microplate, as described above, as a control, each 100 μL of cell suspensions of the transformed budding yeast TM182-RsOS1 which had been prepared by dilution with a Gal-Ura-Leu medium was dispensed, and cultured at 30° C. for 42.5 hours. After culturing the absorbance at 600 nm of each well was measured with a microplate reader.
# as §3, with “TM182-RsOS1” for “TM182-FoOS1”, “AH22-RsOS1” for “AH22-FoOS1”, “AH22-RsOS1.” for “AH22-FoOS1.”
SMILES,Degree of growth of budding yeast AH22 Glu medium ([1]; final concentration 0.2 ppm) [%],Degree of growth of budding yeast AH22-FoOS1 Glu-Leu medium ([2]; final concentration 0.2 ppm) [%],Degree of growth of budding yeast AH22-RsOS1 Glu-Leu medium ([3]; final concentration 0.6 ppm) [%],Degree of growth of budding yeast TM182-RsOS1 Gal-Ura-Leu medium ([4]; final concentration 0.6 ppm) [%],Degree of growth of budding yeast TM182-RsOS1 Gul-Ura-Leu medium ([4]; final concentration 0.6 ppm) [%],Degree of growth of budding yeast AH22 Glu medium ([1]; final concentration 20 ppm) [%],Degree of growth of budding yeast AH22-FoOS1 Glu-Leu medium ([2]; final concentration 20 ppm) [%],Degree of growth of budding yeast AH22-RsOS1 Glu-Leu medium ([3]; final concentration 6.0 ppm) [%],Degree of growth of budding yeast TM182-RsOS1 Gal-Ura-Leu medium ([4]; final concentration 6.0 ppm) [%],Degree of growth of budding yeast TM182-RsOS1 Gul-Ura-Leu medium ([4]; final concentration 6.0 ppm) [%],Degree of growth of budding yeast AH22 Glu medium ([1]; final concentration 6 ppm) [%],Degree of growth of budding yeast AH22-FoOS1 Glu-Leu medium ([2]; final concentration 6 ppm) [%]
"N#Cc1c[nH]cc1-c1cccc2c1OC(F)(F)O2 [Compound (6), Fludioxonil]",92,69,79,100,12,,,,,,,
"N#Cc1c[nH]cc1-c1cccc(Cl)c1Cl [Compound (7), Fenpiclonil]",91,88,101,99,31,,,,,,,
"O=[N+]([O-])c1c(Cl)c(Cl)c(Cl)c(Cl)c1Cl [Compound (4), Quintozene]",,,,,,96,90,89,88,17,,
"COP(=S)(OC)Oc1c(Cl)cc(C)cc1Cl [Compound (5), Tolclofos-methyl]",,,,,,80,71,85,101,9,,
"CC12CC1(C)C(=O)N(c1cc(Cl)cc(Cl)c1)C2=O (centres unmarked) [Compound (1), Procymidone]",,,,,,,,103,108,15,88,81
"CC(C)NC(=O)N1CC(=O)N(c2cc(Cl)cc(Cl)c2)C1=O [Compound (2), Iprodione]",,,,,,,,101,96,11,91,91
"C=CC1(C)OC(=O)N(c2cc(Cl)cc(Cl)c2)C1=O (centres unmarked) [Compound (3), Vinclozolin]",,,,,,,,101,101,27,87,86
